Results reported in PubChem BioAssay AID1963961 (Molecular Pharmacology Branch, DTP, NCI, 2024).

Tested on: K98450-129-R-PDC multicell spheroids, viability
Assay: Anticancer human tumor K98450-129-R-PDC patient-derived colon adenocarcinoma cell line growth inhibition [PI3K]
Settings: for IC50: curve of first compound; for viability, T/C: stronger effect = lower value
Source text: Combinatorial screen of targeted agents with the PI3K inhibitors inavolisib, alpelisib, duvelisib, and copanlisib in multi-cell type tumor spheroids
A high-throughput screen of multi-cell type tumor spheroids was designed to identify active combinations of targeted small molecules and PI3K pathway inhibitors. Complex spheroids include a stromal component modeled by human endothelial cells (HUVEC) and fibroblasts modeled by human mesenchymal stem cells (MSCs). The concentration ranges selected for each drug and investigational agent were based upon clinically achievable concentrations if the clinical Cmax of the agent was known.
Compounds. The drugs and investigational agents: inavolisib (NSC800729), alpelisib (NSC765974), duvelisib (NSC772469), copanlisib (NSC816437), ipatasertib (NSC767898), afuresertib (NSC778305), talazoparib (NSC767125), sapanisertib (NSC764658), selumetinib (NSC741078), tovorafenib (DAY101, NSC766906), vemurafenib (NSC761431), ravoxertinib (NSC781343), sotorasib (NSC818433), MRTX1133 (NSC 836407), abemaciclib (NSC 768073), palbociclib (NSC758247), venetoclax (NSC 766270), SY5609 (NSC837396), enzalutamide (NSC755605), and darolutamide (NSC825331), were obtained from the National Cancer Institute (NCI) Developmental Therapeutics Program Chemical Repository. The FDA-approved anticancer drug set is available from the NCI Developmental Therapeutics Program. […] The stock solutions were prepared in dimethyl sulfoxide (DMSO, Sigma-Aldrich, St. Louis, MO, cat. D2650) at 800-fold the tested concentration and stored at -70 degrees C prior to their use. All drugs and investigational agents were tested over a range starting from a high concentration at or near the clinical Cmax and decreasing in half-log increments. If the clinical Cmax for an agent had not been determined, the highest concentration tested was 10 microM.
Cell Culture. All cells were maintained in an incubator at 37 degrees C and 5% CO2 with 95% humidity. The PDC lines were cultured according to standard operating procedures established by the NCI PDMR (https://pdmr.cancer.gov/sops/default.htm). All PDCs were thawed and cultured in Matrigel-coated flasks prepared with a working solution of 1X Ham's F-12 nutrient mix, without supplementation (Invitrogen, Waltham, MA, cat. 11765054), 100 U/mL penicillin-streptomycin (Invitrogen, cat. 15140122), and 2.5% Matrigel (Corning Inc., Corning, NY, cat. 354248) for the first three passages. The 354836-022-R-J1-PDC, 475296-252-R-J1-PDC, and 997726-040-R-J2-PDC lines were cultured in 6A media, which includes advanced DMEM/F-12 (Thermo Fisher Scientific, cat. 12634028), 10 mM HEPES (Thermo Fisher Scientific, cat. 15630080), 1X GlutaMAX supplement (Thermo Fisher Scientific, cat. 35050061), 0.1 mg/mL primocin (InvivoGen, San Diego, CA, cat. ant-pm-2), 10% defined fetal bovine serum, heat inactivated (HyClone Laboratories Inc., Logan, UT, cat. SH30070.03HI), 50% L-WRN conditioned media (ATCC, cat. CRL-3276), 1.25 mM N-Acetyl-L-cysteine (Sigma-Aldrich, cat. A9165), 10 mM nicotinamide (Sigma-Aldrich, cat. N0636), 1X B-27 supplement (Thermo Fisher Scientific, cat. 17504044), 1X N-2 supplement (Thermo Fisher Scientific, cat. 17502048), and 10 microM Y-27632 dihydrochloride (Tocris Bioscience, Bristol, United Kingdom, cat. 1254). The 624824-186-R-J2-PDC line was cultured in 6C/Colon 1B media, which includes all 6A media components plus 50 ng/mL human EGF recombinant protein (Thermo Fisher Scientific, cat. PHG0311). […]

[1] = second compound 0.00316 µM, first compound 0.0316 µM
[2] = second compound 0.00316 µM, first compound 0.1 µM
[3] = second compound 0.00316 µM, first compound 0.316 µM
[4] = second compound 0.00316 µM, first compound 1 µM
[5] = second compound 0.00316 µM, first compound 3.16 µM
[6] = second compound 0.00316 µM, first compound 10 µM
[7] = second compound 0.01 µM, first compound 0.0316 µM
[8] = second compound 0.01 µM, first compound 0.1 µM
[9] = second compound 0.01 µM, first compound 0.316 µM
[10] = second compound 0.01 µM, first compound 1 µM
[11] = second compound 0.01 µM, first compound 3.16 µM
[12] = second compound 0.01 µM, first compound 10 µM
[13] = second compound 0.0316 µM, first compound 0.0316 µM
[14] = second compound 0.0316 µM, first compound 0.1 µM
[15] = second compound 0.0316 µM, first compound 0.316 µM
[16] = second compound 0.0316 µM, first compound 1 µM
[17] = second compound 0.0316 µM, first compound 3.16 µM
[18] = second compound 0.0316 µM, first compound 10 µM
[19] = second compound 0.1 µM, first compound 0.0316 µM
[20] = second compound 0.1 µM, first compound 0.1 µM
[21] = second compound 0.1 µM, first compound 0.316 µM
[22] = second compound 0.1 µM, first compound 1 µM
[23] = second compound 0.1 µM, first compound 3.16 µM
[24] = second compound 0.1 µM, first compound 10 µM
[25] = second compound 0.316 µM, first compound 0.0316 µM
[26] = second compound 0.316 µM, first compound 0.1 µM
[27] = second compound 0.316 µM, first compound 0.316 µM
[28] = second compound 0.316 µM, first compound 1 µM
[29] = second compound 0.316 µM, first compound 3.16 µM
[30] = second compound 0.316 µM, first compound 10 µM
[31] = second compound 1 µM, first compound 0.0316 µM
[32] = second compound 1 µM, first compound 0.1 µM
[33] = second compound 1 µM, first compound 0.316 µM
[34] = second compound 1 µM, first compound 1 µM
[35] = second compound 1 µM, first compound 3.16 µM
[36] = second compound 1 µM, first compound 10 µM
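Note: spheroids exposed to agents for seven days before read-out.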

`CC1(C)CCC(CN2CCN(c3ccc(C(=O)NS(=O)(=O)c4ccc(NCC5CCOCC5)c([N+](=O)[O-])c4)c(Oc4cnc5[nH]ccc5c4)c3)CC2)=C(c2ccc(Cl)cc2)C1` + CC(Nc1ccc2c(c1)OCCn1cc(N3C(=O)OCC3C(F)F)nc1-2)C(N)=O gave an IC50 (second compound 0.00316 µM) of 5.72 µM, an IC50 (second compound 0.01 µM) of 5.95 µM and an IC50 (second compound 0.0316 µM) of 5.96 µM. For the same compound, the IC50 (second compound 0.1 µM) was 5.68 µM, the IC50 (second compound 0.316 µM) was 5.6 µM and the IC50 (second compound 1 µM) was 5.38 µM. It also gave a viability, T/C [1] of 105%, a viability, T/C [2] of 105% and a viability, T/C [3] of 99.9%. It also gave a viability, T/C [4] of 103%, a viability, T/C [5] of 96.5% and a viability, T/C [6] of 6.21%. It also gave a viability, T/C [7] of 111%, a viability, T/C [8] of 98.7% and a viability, T/C [9] of 109%. For the same compound, the viability, T/C [10] was 104%, the viability, T/C [11] was 103% and the viability, T/C [12] was 6.45%. The viability, T/C [13] was 106%, the viability, T/C [14] was 107% and the viability, T/C [15] was 106%. For the same compound, the viability, T/C [16] was 99.6%, the viability, T/C [17] was 99.8% and the viability, T/C [18] was 9.42%. The viability, T/C [19] was 98.2%, the viability, T/C [20] was 104% and the viability, T/C [21] was 103%. For the same compound, the viability, T/C [22] was 102%, the viability, T/C [23] was 95.2% and the viability, T/C [24] was 6.43%. The viability, T/C [25] was 97.9%, the viability, T/C [26] was 92.8% and the viability, T/C [27] was 101%. It also gave a viability, T/C [28] of 85.3%, a viability, T/C [29] of 96.3% and a viability, T/C [30] of 4.55%. For the same compound, the viability, T/C [31] was 86.6%, the viability, T/C [32] was 88.1% and the viability, T/C [33] was 89.8%. It also gave a viability, T/C [34] of 90.2%, a viability, T/C [35] of 85.2% and a viability, T/C [36] of 8.82%.

In the case of `C[C@@H](NC(=O)c1ncnc(N)c1Cl)c1ncc(C(=O)Nc2cc(C(F)(F)F)c(Cl)cn2)s1` + CC(Nc1ccc2c(c1)OCCn1cc(N3C(=O)OCC3C(F)F)nc1-2)C(N)=O, the IC50 (second compound 0.00316 µM) is reported as > 10 µM, the IC50 (second compound 0.01 µM) is reported as > 10 µM and the IC50 (second compound 0.0316 µM) is reported as > 10 µM. For the same compound, the IC50 (second compound 0.1 µM) was > 10 µM, the IC50 (second compound 0.316 µM) was > 10 µM and the IC50 (second compound 1 µM) was > 10 µM. It also gave a viability, T/C [1] of 111%, a viability, T/C [2] of 109% and a viability, T/C [3] of 118%. It also gave a viability, T/C [4] of 114%, a viability, T/C [5] of 118% and a viability, T/C [6] of 111%. The viability, T/C [7] was 115%, the viability, T/C [8] was 108% and the viability, T/C [9] was 116%. It also gave a viability, T/C [10] of 115%, a viability, T/C [11] of 118% and a viability, T/C [12] of 116%. For the same compound, the viability, T/C [13] was 105%, the viability, T/C [14] was 102% and the viability, T/C [15] was 108%. The viability, T/C [16] was 121%, the viability, T/C [17] was 122% and the viability, T/C [18] was 104%. The viability, T/C [19] was 96.7%, the viability, T/C [20] was 105% and the viability, T/C [21] was 107%. For the same compound, the viability, T/C [22] was 110%, the viability, T/C [23] was 125% and the viability, T/C [24] was 107%. It also gave a viability, T/C [25] of 97%, a viability, T/C [26] of 109% and a viability, T/C [27] of 113%. It also gave a viability, T/C [28] of 111%, a viability, T/C [29] of 120% and a viability, T/C [30] of 101%. It also gave a viability, T/C [31] of 86%, a viability, T/C [32] of 94.4% and a viability, T/C [33] of 102%. It also gave a viability, T/C [34] of 104%, a viability, T/C [35] of 115% and a viability, T/C [36] of 90.7%.

`Cn1ncnc1[C@H]1c2n[nH]c(=O)c3cc(F)cc(c23)N[C@@H]1c1ccc(F)cc1` + CC(Nc1ccc2c(c1)OCCn1cc(N3C(=O)OCC3C(F)F)nc1-2)C(N)=O was tested, and the IC50 (second compound 0.00316 µM) was > 0.1 µM, the IC50 (second compound 0.01 µM) was > 0.1 µM and the IC50 (second compound 0.0316 µM) was > 0.1 µM. For the same compound, the IC50 (second compound 0.1 µM) was > 0.1 µM, the IC50 (second compound 0.316 µM) was > 0.1 µM and the IC50 (second compound 1 µM) was > 0.1 µM. The viability, T/C (second compound 0.00316 µM, first compound 0.000316 µM) was 112%, the viability, T/C (second compound 0.00316 µM, first compound 0.001 µM) was 92.8% and the viability, T/C (second compound 0.00316 µM, first compound 0.00316 µM) was 100%. The viability, T/C (second compound 0.00316 µM, first compound 0.01 µM) was 96.5%, the viability, T/C [1] was 102% and the viability, T/C [2] was 95.4%. For the same compound, the viability, T/C (second compound 0.01 µM, first compound 0.000316 µM) was 114%, the viability, T/C (second compound 0.01 µM, first compound 0.001 µM) was 92.8% and the viability, T/C (second compound 0.01 µM, first compound 0.00316 µM) was 99.2%. For the same compound, the viability, T/C (second compound 0.01 µM, first compound 0.01 µM) was 93.8%, the viability, T/C [7] was 95.9% and the viability, T/C [8] was 94.3%. It also gave a viability, T/C (second compound 0.0316 µM, first compound 0.000316 µM) of 104%, a viability, T/C (second compound 0.0316 µM, first compound 0.001 µM) of 99% and a viability, T/C (second compound 0.0316 µM, first compound 0.00316 µM) of 89.3%. It also gave a viability, T/C (second compound 0.0316 µM, first compound 0.01 µM) of 100%, a viability, T/C [13] of 98.5% and a viability, T/C [14] of 96.9%. It also gave a viability, T/C (second compound 0.1 µM, first compound 0.000316 µM) of 92%, a viability, T/C (second compound 0.1 µM, first compound 0.001 µM) of 100% and a viability, T/C (second compound 0.1 µM, first compound 0.00316 µM) of 99%. The viability, T/C (second compound 0.1 µM, first compound 0.01 µM) was 95.1%, the viability, T/C [19] was 104% and the viability, T/C [20] was 89.8%. It also gave a viability, T/C (second compound 0.316 µM, first compound 0.000316 µM) of 90.6%, a viability, T/C (second compound 0.316 µM, first compound 0.001 µM) of 89.5% and a viability, T/C (second compound 0.316 µM, first compound 0.00316 µM) of 96%. It also gave a viability, T/C (second compound 0.316 µM, first compound 0.01 µM) of 91.6%, a viability, T/C [25] of 100% and a viability, T/C [26] of 92.6%. The viability, T/C (second compound 1 µM, first compound 0.000316 µM) was 88.4%, the viability, T/C (second compound 1 µM, first compound 0.001 µM) was 92.2% and the viability, T/C (second compound 1 µM, first compound 0.00316 µM) was 88.8%. The viability, T/C (second compound 1 µM, first compound 0.01 µM) was 88.6%, the viability, T/C [31] was 93.6% and the viability, T/C [32] was 86.9%.
